Series [1] has as its system reuptake of dopamine in synaptosomes of rat forebmin. The series is described as follows: Inhibition of reuptake of dopamine in synaptosomes of rat forebrain (3H-dopamine uptake). The settings on record: for IC50: rat forebrain synaptosomes, 3H-dopamine 1×10^-9 M, 10 min at 37° C., read-out: Dopamine reuptake inhibiting activity (IC50). Type of series: biochemical, rat (male Wistar).
Method: Fresh whole forebmin (at 0°-4° C.) from male Wistar rats (150-200 g) is homogenized in a glass homogenizer with a teflon pestle in 20×volumes 0.32M sucrose. The homogenate is centrifuged at 1000×g (~2900 rpm) for 10 min. The pellet is discarded and the supernatant is used for uptake assays.
The samples are thoroughly mixed and incubated 10 min at 37° C. followed by 2 min at 0° C. After incubation the samples are poured directly onto Whatman GF/C glass fibre filters under suction and immediately washed with 2×5 ml ice-cold 0.9% saline (NaCI) buffer. To the filter is added 3 ml of scintillation fluid, and the amount of radioactivity on the filters is determined by conventional liquid scintillation counting.

Series [2] deals with abnormal stereotyped behaviour. The series is described as follows: Classification of the abnormal stereotyped behaviour (side effect). The class given is in vivo, rat. The text has this:
Classification of the abnormal stereotyped behaviour.
Backward locomotion may occasionally be observed.
+=only stereotyped sniffing
++=stereotyped sniffing and episodic licking
+++=Continuous licking and/or biting gnawing

Series [3] relates to excitatory Iocomotor and rearing responses. The series is described as follows: Classification of behavioural excitatory locomotor and rearing responses (side effect). The class given is in vivo, rat (male SPF wistar).
Method: Male SPF wistar rats weighing 200-250 g were used for the gross behavioural studies. All rats were transferred the day before the experiments to individual cages made of wire netting (floor area 21×27 cm, height 16 cm) at a room temperature of 21°-23° C. […] The behavioural elements here classified as rearing (i.e. standing up on the hindlegs) and Iocomotor activities (i.e. forward running activities) were registered, and the maximum peak effects were classified according to the following rating scale:
0=non-existent or very infrequent
++=moderate in intensity and frequency
+++=very strong, continuous and intense
Series [4] deals with serotonine (5-hydroxythryptamine, 5-HT) reuptake. The series is described as follows: Serotonin (5-HT) reuptake inhibition. Conditions: in combination with dopamine reuptake inhibition. Type of series: biochemical.

The results in this text go back to patent publication US5374636A, “2,3-trans-disubstituted tropane compounds which have useful pharmaceutical utility” (NeuroSearch A/S, priority 1992, dated 1994).

A word on the IC50: it is the midpoint of a concentration-inhibition curve.

SMILES strings stand for the structures.

Turning to `COC(=O)[C@@H]1[C@@H](c2ccc3ccccc3c2)C[C@@H]2CC[C@H]1N2C` [(1R,2R,3S)-2-carbomethoxy-3-(2-naphthyl)tropane], in series [1], the IC50 was found to be 100 nM. Further, the “Activity (high intensity abnormal stereotyped behaviour)” value in series [2] (25 mg/kg i.p.) was found to be 0.

With `COC(=O)[C@@H]1[C@@H](c2ccc(Cl)c(Cl)c2)C[C@@H]2CC[C@H]1N2C` [(1R,2R,3S)-2-carbomethoxy-3-(3,4-dichlorophenyl)tropane], in series [1], the IC50 is 16 nM. Besides, the “Activity (excitatory locomotor and rearing responses, maximum peak effect)” value in series [3] (50 mg/kg i.p.) is on record as “+”. Further, the “Activity (high intensity abnormal stereotyped behaviour)” value in series [2] (50 mg/kg i.p.) is listed as “+++”.

Consider `COC(=O)[C@@H]1[C@@H](c2ccc(F)cc2)C[C@@H]2CC[C@H]1N2C` [trans isomer of Win 35,428, (1R,2R,3S)-2-carbomethoxy-3-(4-fluorophenyl)tropane], for which the “side effects as measured by excitatory locomotor activity and rearing responses as well as abnormal stereotyped behaviour” value in series [3] (every relevant dosing level tested) was “essentially or totally devoid of side effects”.

For the compound `CN1[C@H]2CC[C@@H]1[C@H](COc1ccc(Cl)cc1)[C@@H](c1ccc(F)cc1)C2.Cl` [(1R,2R,3S)-2-(4-Chlorophenoxy-methyl)-3-(4-fluorophenyl)tropane, hydrochloride], in series [1], the “dopamine reuptake inhibiting activity (in words)” value is listed as “potent dopamine reuptake inhibiting activity” and the IC50 amounted to 390 nM. Besides, the “Activity (high intensity abnormal stereotyped behaviour)” value in series [2] (50 mg/kg i.p.) came to 0. For the same compound, in series [4], the “serotonine (5-HT) reuptake inhibiting activity” value is listed as “very potent serotonine (5-hydroxythryptamine, 5-HT) reuptake inhibiting activity”.
